The record followed here is patent US8785445B2 (Array BioPharma Inc., priority 2008, dated 2014).

One assay deals with T1, human DP2 (Homo sapiens, UniProt Q9Y5Y4).
T1 construct: expressed in transfected cells; membranes prepared
T1 sequence (Q9Y5Y4 1-395): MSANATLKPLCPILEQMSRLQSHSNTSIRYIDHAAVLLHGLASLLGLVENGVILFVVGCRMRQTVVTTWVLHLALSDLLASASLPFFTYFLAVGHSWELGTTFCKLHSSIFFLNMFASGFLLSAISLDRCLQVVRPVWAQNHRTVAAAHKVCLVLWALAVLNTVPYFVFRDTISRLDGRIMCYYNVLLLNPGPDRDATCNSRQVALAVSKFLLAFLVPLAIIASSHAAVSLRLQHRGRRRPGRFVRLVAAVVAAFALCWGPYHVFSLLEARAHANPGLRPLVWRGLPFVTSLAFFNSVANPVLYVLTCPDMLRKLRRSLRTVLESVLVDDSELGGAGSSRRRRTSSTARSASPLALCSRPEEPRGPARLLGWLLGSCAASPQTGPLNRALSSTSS
Description: DP-2 binding inhibition assay (3H-PGD2, membranes of DP2-expressing K562 cells). Conditions: 0.1% BSA, read-out: EC50 (nM) 0.1% BSA. The gist of the method: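 Displacement of 3H-PGD2 was measured by filtration and scintillation counting after 60 min at room temperature, using membranes of DP2-transfected K562 cells in 0.1% BSA, 1% HSA or 4% HSA.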
As a reminder, the EC50 is the concentration giving half of the maximal effect. `Cc1cnc(NC(=O)c2ccc(Oc3cc4c(cc3C#N)C(C(=O)O)CCO4)cc2)s1` (centres unmarked) [Example 176, 6-cyano-7-(4-(5-methylthiazol-2-ylcarbamoyl)phenoxy)chroman-4-carboxylic acid]: the EC50 stood at 62.7 nM.

With `Cc1csc(NC(=O)c2ccc(Oc3cc4c(cc3C#N)C(C(=O)O)CCO4)cc2)n1` (centres unmarked) [Example 177, 6-cyano-7-(4-(4-methylthiazol-2-ylcarbamoyl)phenoxy)chroman-4-carboxylic acid], the EC50 came out at 68.2 nM.

In the case of `N#Cc1cc2c(cc1Oc1ccc(C(=O)Nc3ccc4ncoc4c3)cc1)OCCC2C(=O)O` (centres unmarked) [Example 188, 7-(4-(benzo[d]oxazol-6-ylcarbamoyl)phenoxy)-6-cyanochroman-4-carboxylic acid], the half-maximal effective concentration (EC50) stood at 301 nM.

Staying with this assay, now noted: 4% HSA, read-out: EC50 (nM) 4% HSA.
Turning to `O=C(Nc1nc(-c2ccc(F)cc2F)cs1)c1ccc(Oc2cc3c(cc2Cl)C(C(=O)O)CCO3)cc1` (centres unmarked) [Example 155, 6-chloro-7-(4-(4-(2,4-difluorophenyl)thiazol-2-ylcarbamoyl)phenoxy)chroman-4-carboxylic acid], the EC50 amounted to 68.9 nM.

Regarding `CC(C)c1csc(NC(=O)c2ccc(Oc3cc4c(cc3Cl)C(C(=O)O)CCO4)cc2)n1` (centres unmarked) [Example 156, 6-chloro-7-(4-(4-isopropylthiazol-2-ylcarbamoyl)phenoxy)chroman-4-carboxylic acid], the EC50 was 157 nM.

In the case of `O=C(Nc1nc(-c2cccc(Cl)c2)cs1)c1ccc(Oc2cc3c(cc2Cl)C(C(=O)O)CCO3)cc1` (centres unmarked) [Example 157, 6-chloro-7-(4-(4-(3-chlorophenyl)thiazol-2-ylcarbamoyl)phenoxy)chroman-4-carboxylic acid], the 50% effective concentration (EC50) is 16.6 nM.

As to `CC(C)(C)c1cc(NC(=O)c2ccc(Oc3cc4c(cc3Cl)C(C(=O)O)CCO4)cc2)no1` (centres unmarked) [Example 158, 7-(4-(5-tert-butylisoxazol-3-ylcarbamoyl)phenoxy)-6-chlorochroman-4-carboxylic acid], the EC50 was determined as 155 nM.

As to `CCc1oc(NC(=O)c2ccc(Oc3cc4c(cc3Cl)C(C(=O)O)CCO4)cc2)nc1-c1ccccc1` (centres unmarked) [Example 159, 6-chloro-7-(4-(5-ethyl-4-phenyloxazol-2-ylcarbamoyl)phenoxy)chroman-4-carboxylic acid], the EC50 is 437 nM.

On to `CC(C)c1nsc(NC(=O)c2ccc(Oc3cc4c(cc3Cl)C(C(=O)O)CCO4)cc2)n1` (centres unmarked) [Example 160, 6-chloro-7-(4-(3-isopropyl-1,2,4-thiadiazol-5-ylcarbamoyl)phenoxy)chroman-4-carboxylic acid], for which the EC50 turned out to be 849 nM.

Take `O=C(Nc1cc(-c2ccc(Cl)cc2)no1)c1ccc(Oc2cc3c(cc2Cl)C(C(=O)O)CCO3)cc1` (centres unmarked) [Example 161, 6-chloro-7-(4-(3-(4-chlorophenyl)isoxazol-5-ylcarbamoyl)phenoxy)chroman-4-carboxylic acid]: the EC50 came out at 74.6 nM.

Consider `CC(C)(C)c1cc(NC(=O)c2ccc(Oc3cc4c(cc3Cl)C(C(=O)O)CCO4)cc2)on1` (centres unmarked) [Example 162, 7-(4-(3-tert-butylisoxazol-5-ylcarbamoyl)phenoxy)-6-chlorochroman-4-carboxylic acid], for which the EC50 is 1600 nM.

Turning to `O=C(Nc1nc(-c2ccccc2)ns1)c1ccc(Oc2cc3c(cc2Cl)C(C(=O)O)CCO3)cc1` (centres unmarked) [Example 163, 6-chloro-7-(4-(3-phenyl-1,2,4-thiadiazol-5-ylcarbamoyl)phenoxy)chroman-4-carboxylic acid], the EC50 worked out at 564 nM.

For the molecule `O=C(Nc1cnn(-c2cccc(Cl)c2)c1)c1ccc(Oc2cc3c(cc2Cl)C(C(=O)O)CCO3)cc1` (centres unmarked) [Example 164, Sodium 6-chloro-7-(4-(1-(3-chlorophenyl)-1H-pyrazol-4-ylcarbamoyl)phenoxy)chroman-4-carboxylate], the EC50 turned out to be 143 nM.

In the case of `O=C(Nc1cnn(-c2cccc(Cl)c2)c1)c1ccc(Oc2c(Cl)cc3c(c2Cl)OCCC3C(=O)O)cc1` (centres unmarked) [Example 165, Sodium 6,8-dichloro-7-(4-(1-(3-chlorophenyl)-1H-pyrazol-4-ylcarbamoyl)phenoxy)chroman-4-carboxylate], the EC50 was determined as 187 nM.

Turning to `O=C(Nc1ccn(-c2ccc(F)c(F)c2)n1)c1ccc(Oc2cc3c(cc2Cl)C(C(=O)O)CCO3)cc1` (centres unmarked) [Example 166, 6-chloro-7-(4-(1-(3,4-difluorophenyl)-1H-pyrazol-3-ylcarbamoyl)phenoxy)chroman-4-carboxylic acid], the EC50 came to 85.1 nM.

In the case of `O=C(Nc1ccn(-c2ccc(F)c(Cl)c2)n1)c1ccc(Oc2cc3c(cc2Cl)C(C(=O)O)CCO3)cc1` (centres unmarked) [Example 167, 6-chloro-7-(4-(1-(3-chloro-4-fluorophenyl)-1H-pyrazol-3-ylcarbamoyl)phenoxy)chroman-4-carboxylic acid], the concentration giving a half-maximal response (EC50) stood at 46.8 nM.

For the molecule `O=C(Nc1ccn(-c2ccc(F)cc2F)n1)c1ccc(Oc2cc3c(cc2Cl)C(C(=O)O)CCO3)cc1` (centres unmarked) [Example 168, 6-chloro-7-(4-(1-(2,4-difluorophenyl)-1H-pyrazol-3-ylcarbamoyl)phenoxy)chroman-4-carboxylic acid], the EC50 was determined as 112 nM.

Consider `O=C(Nc1ccn(-c2cccc(Cl)c2F)n1)c1ccc(Oc2cc3c(cc2Cl)C(C(=O)O)CCO3)cc1` (centres unmarked) [Example 169, 6-chloro-7-(4-(1-(3-chloro-2-fluorophenyl)-1H-pyrazol-3-ylcarbamoyl)phenoxy)chroman-4-carboxylic acid], for which the concentration giving a half-maximal response (EC50) is 76 nM.

`COc1ccc(-n2ccc(NC(=O)c3ccc(Oc4cc5c(cc4Cl)C(C(=O)O)CCO5)cc3)n2)cc1` (centres unmarked) [Example 170, 6-chloro-7-(4-(1-(4-methoxyphenyl)-1H-pyrazol-3-ylcarbamoyl)phenoxy)chroman-4-carboxylic acid]: the EC50 turned out to be 292 nM.

Turning to `O=C(Nc1ccn(-c2ccccc2)n1)c1ccc(Oc2cc3c(cc2Cl)C(C(=O)O)CCO3)cc1` (centres unmarked) [Example 171], the 50% effective concentration (EC50) turned out to be 97.5 nM.

As to `O=C(Nc1ccn(-c2cccc(Cl)c2)n1)c1ccc(Oc2cc3c(cc2Cl)C(C(=O)O)CCO3)cc1` (centres unmarked) [Example 172, 6-chloro-7-(4-(1-(3-chlorophenyl)-1H-pyrazol-3-ylcarbamoyl)phenoxy)chroman-4-carboxylic acid], the EC50 was found to be 55 nM.

Turning to `O=C(Nc1ccn(-c2ccc(Cl)c(Cl)c2)n1)c1ccc(Oc2cc3c(cc2Cl)C(C(=O)O)CCO3)cc1` (centres unmarked) [Example 173, 6-chloro-7-(4-(1-(3,4-dichlorophenyl)-1H-pyrazol-3-ylcarbamoyl)phenoxy)chroman-4-carboxylic acid], the EC50 was 22.9 nM.

`O=C(Nc1ccn(-c2ccccc2Cl)n1)c1ccc(Oc2cc3c(cc2Cl)C(C(=O)O)CCO3)cc1` (centres unmarked) [Example 174, 6-chloro-7-(4-(1-(2-chlorophenyl)-1H-pyrazol-3-ylcarbamoyl)phenoxy)chroman-4-carboxylic acid]: the EC50 is 47.1 nM.

As to `O=C(Nc1ccn(-c2ccc(Cl)cc2)n1)c1ccc(Oc2cc3c(cc2Cl)C(C(=O)O)CCO3)cc1` (centres unmarked) [Example 175, 6-chloro-7-(4-(1-(4-chlorophenyl)-1H-pyrazol-3-ylcarbamoyl)phenoxy)chroman-4-carboxylic acid], the EC50 was found to be 80.7 nM.

Consider `Cn1nc(C(C)(C)C)cc1NC(=O)c1ccc(Oc2cc3c(cc2Cl)C(C(=O)O)CCO3)cc1` (centres unmarked) [Example 178, 7-(4-(3-tert-butyl-1-methyl-1H-pyrazol-5-ylcarbamoyl)phenoxy)-6-chlorochroman-4-carboxylic acid], for which the concentration giving a half-maximal response (EC50) stood at 951 nM.

For `O=C(Nc1ccn(Cc2ccc(Cl)cc2)n1)c1ccc(Oc2cc3c(cc2Cl)C(C(=O)O)CCO3)cc1` (centres unmarked) [Example 179, 6-chloro-7-(4-(1-(4-chlorobenzyl)-1H-pyrazol-3-ylcarbamoyl)phenoxy)chroman-4-carboxylic acid], the EC50 turned out to be 247 nM.

As for `O=C(Nc1cc(-c2ccc(Cl)cc2)n[nH]1)c1ccc(Oc2cc3c(cc2Cl)C(C(=O)O)CCO3)cc1` (centres unmarked) [Example 180, 6-Chloro-7-(4-(3-(4-chlorophenyl)-1H-pyrazol-5-ylcarbamoyl)phenoxy)chroman-4-carboxylic acid], the concentration giving a half-maximal response (EC50) was 406 nM.

For `O=C(Nc1cc(-c2ccc(F)cc2)n[nH]1)c1ccc(Oc2cc3c(cc2Cl)C(C(=O)O)CCO3)cc1` (centres unmarked) [Example 181, 6-Chloro-7-(4-(3-(4-fluorophenyl)-1H-pyrazol-5-ylcarbamoyl)phenoxy)chroman-4-carboxylic acid], the EC50 was 313 nM.

Regarding `O=C(Nc1nc2ccc(C(F)(F)F)cc2s1)c1ccc(Oc2cc3c(cc2Cl)C(C(=O)O)CCO3)cc1` (centres unmarked) [Example 183, 6-Chloro-7-(4-(6-(trifluoromethyl)benzo[d]thiazol-2-ylcarbamoyl)phenoxy)chroman-4-carboxylic acid], the EC50 was determined as 45.8 nM.

As to `COc1nc(C2CC2)ccc1CCNC(=O)c1ccc(Oc2cc3c(cc2Cl)C(C(=O)O)CCO3)cc1` (centres unmarked) [Example 184, Sodium 6-Chloro-7-(4-(2-(6-cyclopropyl-2-methoxypyridin-3-yl)ethylcarbamoyl)phenoxy)chroman-4-carboxylate], the EC50 was found to be 42.1 nM.

Turning to `O=C(NCCc1ccc(C(F)(F)F)nc1C1CC1)c1ccc(Oc2cc3c(cc2Cl)C(C(=O)O)CCO3)cc1` (centres unmarked) [Example 186, Sodium 6-Chloro-7-(4-(2-(2-cyclopropyl-6-(trifluoromethyl)pyridin-3-yl)ethylcarbamoyl)phenoxy)chroman-4-carboxylate], the EC50 is 32.6 nM.

For `CN(C)c1nc(C2CC2)ccc1CCNC(=O)c1ccc(Oc2cc3c(cc2Cl)C(C(=O)O)CCO3)cc1` (centres unmarked) [Example 187, 6-Chloro-7-(4-(2-(6-cyclopropyl-2-(dimethylamino)pyridin-3-yl)ethylcarbamoyl)phenoxy)chroman-4-carboxylic acid], the EC50 is 45.2 nM.
